Measured values as given in PMC4255919 (Nature, 2014).

Key:
[1] = biological target: GluCl (C. elegans GluClα, GluClcryst) (Caenorhabditis elegans, UniProt G5EBR3, DEL364-421/INS363AGT); assay: radioligand competition with [3H]-ivermectin; assay type: binding
[2] = biological target: T1, GluCl (C. elegans GluClα, GluClcryst) (Caenorhabditis elegans, UniProt G5EBR3, INS363AGT/DEL364-421); assay: X-ray crystal structure at […] Å; assay type: binding
T1 sequence (G5EBR3 with tags, fused parts or gaps INS363AGT/DEL364-421): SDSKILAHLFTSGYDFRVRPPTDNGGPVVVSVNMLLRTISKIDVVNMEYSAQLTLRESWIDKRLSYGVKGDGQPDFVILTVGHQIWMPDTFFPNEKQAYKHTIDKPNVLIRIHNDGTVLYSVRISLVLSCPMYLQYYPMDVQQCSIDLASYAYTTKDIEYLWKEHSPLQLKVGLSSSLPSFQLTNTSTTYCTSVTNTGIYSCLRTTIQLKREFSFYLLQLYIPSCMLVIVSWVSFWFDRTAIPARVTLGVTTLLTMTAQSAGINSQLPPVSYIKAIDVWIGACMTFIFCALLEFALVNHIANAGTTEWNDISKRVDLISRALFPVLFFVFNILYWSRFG

## CCCCCCCC/C=C\CCCCCCCC(=O)O[C@H](COC(=O)CCCCCCCCCCCCCCC)COP(=O)(O)OC[C@H](N)C(=O)O [POPS, 1-palmitoyl-2-oleoyl-sn-glycero-3-phosphoserine]
[1]
  Ki: 167 µM

## CCCCCCCC/C=C\CCCCCCCC(=O)O[C@@H](COC(=O)CCCCCCCCCCCCCCC)COP(=O)([O-])OCC[N+](C)(C)C [POPC, 1-palmitoyl-2-oleoyl-sn-glycero-3-phosphocholine]
[2]
  X-ray crystal structure at 3.2 Å: We modeled these densities as POPC molecules with the phosphocholine head group pointing towards the center of the pore
